Tested on: Hep3B cells
Experiment: Pulse-chase time-lapse microscopy of fucosylated glycans
Format: cell-based, human
Details: 30 minute pulse, biotin/streptavidin-FITC
Experimental: Additional cellular structures are visualized using alternative labeling systems (e.g., WGA lectin used to visualize Golgi apparatus, and Hoechst used to visualize nucleus).
Pulse-chased MOE experiments entail growing cells of interest to log-phase levels and then exposing them to the sugar analogs in the growth medium, as prescribed by standard MOE, but only for a 30 minute pulse, before replenishing with fresh medium devoid of sugars. Post sugar-pulse, the cells are grown for various lengths of time before analysis.
Cells of interest may be grown to log phase and then presented with various derivatized sugars for a limited period of time; for example, 30 minutes. After the limited period of time, the cells are no longer presented with the various sugars. The cells with glycoconjugates incorporating various tagged sugars may then be visualized over time through secondary detection and/or microscopy in relation to various intracellular and intercellular structures, in order to collect data on the trafficking and relative location of tagged and labeled glycoconjugates.

1,2,3,4-tetraacetyl alkynyl fucose [alkynyl Fuc 1]
signal for fucosylated glycans co-localized with Golgi marker after pulse: co-localized yellow signal as early as 2 h

Reference: patent US10317393B2, “Alkynyl sugar analogs for labeling and visualization of glycoconjugates in cells” (Academia Sinica, priority 2007, dated 2019)
